Like-named read-outs stand apart in the source and are kept apart here. Ends that are not written are not given here.
How the values were obtained:
Type in all cases: cell-based
Cladosporium sp. = tested on: Cladosporium sp.
Procedure: (§1) The synthetic peptides (see section 2.11) were also screened for antifungal activity against Candida albicans (ATCC 10231), Saccharomyces cerevisiae, Rhodotorula sp., Aureobasidium pullulans and Cladosporium sp. The antifungal assay was performed as described previously. Briefly, fungal spores were dissolved in potato dextrose broth (Difco, Lawrence, KS, USA) to a concentration of 4 × 10^5 spores/ml. The spores (50 μl) were inoculated on 96-well Nunclon^TM microtiter plates containing the synthetic peptides (50 μl) dissolved in MQ-H2O. […] MIC was defined as the lowest concentration of peptide giving no visible fungal growth. The negative (growth) control contained medium and fungal solution.
(§2) ACN-phases and SPE eluates were tested with two-fold serial dilutions ranging from 5.0 to 0.005 mg/ml (5.0, 2.5, 1.25, 0.63, 0.31, 0.16, 0.08, 0.04, 0.02, 0.01, 0.005 mg/ml) whereas HPLC-fractions were tested undiluted for antibacterial activity. Pure, native peptides and synthetic peptides (described in section 2.11) were tested for antimicrobial activity in concentrations ranging from 100 to 0.1 μM in two-fold serial dilutions (100, 50, 25, 12.5, 6.25, 3.13, 1.56, 0.78, 0.39, 0.20, 0.10 μM). Antimicrobial assays involving natural peptides (i.e. fractionated natural material) were run only once due to limited quantities, whereas all other assays were run in triplicates.

[1] = tested on: Candida albicans (ATCC 10231)
Procedure: as §1, §2

Rhodotorula sp. = tested on: Rhodotorula sp.
Procedure: as §1, §2

Saccharomyces cerevisiae = tested on: Saccharomyces cerevisiae
Procedure: as §1, §2

Aureobasidium pullulans = tested on: Aureobasidium pullulans
Procedure: as §1, §2

[2] = potato dextrose broth, 24 h at room temperature, visual, no visible fungal growth, value of Table 2, triplicates

WGHKLRSSWNKVKHAVKKGAGYASGACRVLGH [EeCentrocin 2 HC]
MIC raw data Cladosporium sp. (Cladosporium sp.; parallel 1 of three): 12.5 µM | MIC raw data Cladosporium sp. (Cladosporium sp.; parallel 2 of three): 12.5 µM | MIC raw data Cladosporium sp. (Cladosporium sp.; parallel 3 of three): 12.5 µM | MIC Cladosporium sp. (Cladosporium sp.; [2]): 12.5 µM | MIC raw data C. albicans ([1]; parallel 1 of three): 50 µM | MIC raw data C. albicans ([1]; parallel 2 of three): 50 µM | MIC raw data C. albicans ([1]; parallel 3 of three): 25 µM | MIC C. albicans [1, 2]: 50 µM | MIC raw data Rhodotorula sp. (Rhodotorula sp.; parallel 1 of three): 3.13 µM | MIC raw data Rhodotorula sp. (Rhodotorula sp.; parallel 2 of three): 3.13 µM | MIC raw data Rhodotorula sp. (Rhodotorula sp.; parallel 3 of three): 3.13 µM | MIC Rhodotorula sp. (Rhodotorula sp.; [2]): 3.13 µM | MIC raw data S. cerevisiae (Saccharomyces cerevisiae; parallel 1 of three): 12.5 µM | MIC raw data S. cerevisiae (Saccharomyces cerevisiae; parallel 2 of three): 12.5 µM | MIC raw data S. cerevisiae (Saccharomyces cerevisiae; parallel 3 of three): 12.5 µM | MIC S. cerevisiae (Saccharomyces cerevisiae; [2]): 12.5 µM | MIC raw data A. pullulans (Aureobasidium pullulans; parallel 1 of three): 25 µM | MIC raw data A. pullulans (Aureobasidium pullulans; parallel 2 of three): 25 µM | MIC raw data A. pullulans (Aureobasidium pullulans; parallel 3 of three): 25 µM | MIC A. pullulans (Aureobasidium pullulans; [2]): 25 µM

From PMC4805251, “Novel Antimicrobial Peptides EeCentrocins 1, 2 and EeStrongylocin 2 from the Edible Sea Urchin Echinus esculentus Have 6-Br-Trp Post-Translational Modifications” (PLoS ONE, 2016)
